Values of other authors as cited in PMC7898037, “Improving mitochondria and ER stability helps eliminate upper motor neuron degeneration that occurs due to mSOD1 toxicity and TDP‐43 pathology” (Clinical and Translational Medicine, 2021).

How the values were obtained:
[1] = test system: SOD1^G93A‐expressing PC12 cell; conditions: PC12 cell‐based assay; cited from earlier work
cortical neurons = test system: cortical neurons; parameters: method as in earlier work; conditions: ref 53 (compound 2), ref 54 (NU‐9); cited from earlier work
SOD1 model mouse = conditions: cited from earlier work

## O=C1CC(=O)CC(c2ccc(F)cc2)C1 [compound 1]
[1]
  effect on mSOD1‐induced protein aggregation: inhibit mSOD1‐induced protein aggregation
  effect on mSOD1‐mediated toxicity: reduce mSOD1‐mediated toxicity

## O=C1CC(=O)CC(c2cc(C(F)(F)F)cc(C(F)(F)F)c2)C1 [compound 2]
Cortical neurons
  penetration into neurons: did not penetrate into neurons

## Nc1nc2ccc(OC(F)(F)F)cc2s1 [riluzole]
SOD1 model mouse
  longevity of the misfolded SOD1 (mSOD1) mouse model: failed to improve the longevity
